Source: US7528284B2, “Method for producing xylylenediamine (XDA)” (BASF Aktiengesellschaft, priority 2003, dated 2009)

Experiment: Investigations of solubility of IPN in different solvents
Assay type: physicochemical
Procedure: Investigations of Solubility of IPN in Different Solvents
At 60° C., the solubility of IPN in mesitylene or pseudocumene is in each case below 10% by weight.

N#Cc1cccc(C#N)c1 [IPN, 1,3-dicyanobenzene]
solubility of IPN in NMP (at 60° C.): approx. 26 % by weight
solubility of IPN in NMP (at 90° C.): approx. 41 % by weight
solubility of IPN in mesitylene (at 60° C.): below 10 % by weight
solubility of IPN in mesitylene (at 90° C.): 12 % by weight
solubility of IPN in pseudocumene (at 60° C.): below 10 % by weight
solubility of IPN in pseudocumene (at 90° C.): 20 % by weight
